# US20030144271A1, “Methods for the treatment of substance abuse” (priority 2000, published 2003)
# Several values for one entry are separate records, joined by “and”; a condition that tells them apart may be missing. Equal values may be shown once. Entries after “also recorded” stand apart in the source; their conditions may differ.
# Key:
# [1] = test system: alcohol / volatile inhalant dependent patients; test: Open Alc/Inhalant therapeutic (N + A + CCB) drug dependence trial (Example 7, Table 2); assay type: in vivo, human; settings: A666 × 3 mg/d; for Key Parameters: Audit Score: score out of 40; for Key Parameters: Abstinence / Key Parameters: Craving / Key Parameters: Relapse: scale 0-10
# Procedure: (§1) (v) Scoring of key parameters was based on questionaries completed by the subject. For the audit score, an initial base-line questionnaire preceding treatment and subsequently, a similar weekly questionnaire, following each week of treatment was conducted by the trial clinician and trial subject. The subject's answers were assigned a value and the score for all 10 questions totalled (out of 40). A total of 13+ is indicated as alcohol dependent, 8+ as a hazardous drinker and less than 8 a safe drinker, with 0 indicating abstinence. Levels of Craving, tendency to Relapse and degree of Abstinence were rated by the subject on a scale of 0-10, with 0,0 indicating absence of craving and relapse respectively, and 10 indicating total abstinence from alcohol and volatile inhalant.
# Two patients were treated in an open trial with a daily dose of naltrexone, acamprosate and verapamil. Key parameters were evaluated as per Example 6. The results are presented in Table 2, depicting treatment duration, patient characteristics, key parameters and improved parameters and side-effects.
# [2] = test system: detoxified opiate subjects; test: Double-blind placebo-controlled cross-over trial in detoxified opiate subjects (Table 1A, comparative); assay type: in vivo, human; settings: weekly; for Abstinence: scale 0-10, 10 = total abstinence
# Excerpt: (ii) To permit their optimal comparison by the same test subject, treatments A & C were both given for the same and longest length of time available before the trial was terminated. […] The actual drug components of treatments A, B and C for each trial subject, and the duration of each treatment are also shown in Table 1 in each case.
# as §1, with “For the audit score, an initial base-line questionnaire preceding treatment and subsequently, a similar weekly questionnaire, following each week of treatment was conducted by the trial clinician and trial subject.” left out
# […] […] However, many opiate (or other substance) addicts also have a secondary addiction to alcohol or use alcohol excessively when they are unable to obtain the opiate of addiction. The present invention can also be used to treat such multi-substance addicted subjects.
# [3] = in vivo; cited from earlier work
# [4] = test system: detoxified alcoholic patients; test: N-of-1 double-blind placebo-controlled cross-over clinical trial in detoxified alcoholic patients (Example 6, Table 1); assay type: in vivo, human; settings: 5 mg, in two subjects
# Procedure: The patient characteristics, their randomised active and control treatments and their outcomes, and the key and ancillary parameters on which the progressive comparative weekly safeties and efficacies of the active and control treatments were determined for each of the 6 double-blind trial subjects are all shown in Table 1.
# (i) Each trial subject received sequentially 3 different but operationally-related individual treatments, each on an oral once daily basis, labelled, for convenience, A (which may randomly be an active or control treatment), B (wash-out) and C (which may also randomly be a control or […])
# (ii) To permit their optimal comparison by the same test subject, treatments A & C were both given for the same and longest length of time available before the trial was terminated. Patient and clinician bias in interpretation was minimised or excluded by giving these treatments on a randomised double-blind basis which ensured that neither knew if the active or control treatment was given first or last. Thus sometimes, labelled treatment A or C was the active or control treatment and vice versa. The actual drug components of treatments A, B and C for each trial subject, and the duration of each treatment are also shown in Table 1 in each case. […]
smiles,measurement,setting,value
CC(=O)NCCCS(=O)(=O)O [A666 × 3],Key Parameters: Audit Score,"[1]; subject 1 (Alc 20+ Units/d), 01/07/00",37
same,Improved (1) Ancillary Parameters: Energy,"[1]; subject 1, 01/07/00",0
same,Improved (1) Ancillary Parameters: In-Control,"[1]; subject 1, 01/07/00",0
same,Improved (1) Ancillary Parameters: Thinking,"[1]; subject 1, 01/07/00",0
same,Patient's View,"[1]; subject 1, 01/07/00",0
same,Side-effects,"[1]; subject 1, 01/07/00",Nil
same,Key Parameters: Abstinence,"[1]; subject 1, 01/07/00",0
same,Key Parameters: Craving,"[1]; subject 1, 01/07/00",8
same,Key Parameters: Relapse,"[1]; subject 1, 01/07/00",10
same,Improved (1) Ancillary Parameters: Energy,"[1]; subject 1, 09/07/00",0
same,Improved (1) Ancillary Parameters: Thinking,"[1]; subject 1, 09/07/00",0
same,Patient's View,"[1]; subject 1, 09/07/00",Progress+
same,Side-effects,"[1]; subject 1, 09/07/00",Nil
same,Key Parameters: Abstinence,"[1]; subject 1, 09/07/00",1
same,Key Parameters: Craving,"[1]; subject 1, 09/07/00",7
same,Key Parameters: Relapse,"[1]; subject 1, 09/07/00",8
same,Key Parameters: Audit Score,"[1]; subject 1, 09/07/00",37
O=C1CC[C@@]2(O)[C@H]3Cc4ccc(O)c5c4[C@@]2(CCN3CC2CC2)[C@H]1O5 [N25 + Pl],Relapse,"[2]; scale 0-10, 0 = absence, listed as N5 + Pl",0
same,Abstinence,[2]; listed as N5 + Pl,10
same,Patient's View,[2],Progress 0
same,Patient's View,[2]; assessment date 03/11/00,Progress +/−
same,Patient's View,[2]; assessment date 15/11/00,Progress +
same,Patient's View,[2]; listed as N5 + Pl,Progress ++
same,Patient's View,"[2]; listed as NAll25 + Pl, assessment date 03/11/00",Progress+/−
same,Patient's View,"[2]; listed as NAll25 + Pl, assessment date 15/11/00",Progress+
"O=C1CC[C@@]2(O)[C@H]3Cc4ccc(O)c5c4[C@@]2(CCN3CC2CC2)[C@H]1O5 [N25, Naltrexone]",Abstinence,[2],10 and 8
same,Patient's View,[2],Progress+; also recorded: Progress++; also recorded: Progress+++
CCOC(=O)C1=C(COCCN)NC(C)=C(C(=O)OC)C1c1ccccc1Cl (centres unmarked) [amlodipine],time to reach a plateau plasma concentration,[3],5 to 10 days
same,Side-effects of the administered dose,[4],a number of initial transient side-effects
